Values after ≈ are worked out from the molar mass of the structure shown. Where two headings read alike, the source gives them in different places. Where a SMILES comes first, the peptide text is derived from it.
What was measured:
A. baumannii [1] = test: microbe, parasite or virus in culture; format: cell-based, Acinetobacter baumannii
Outline: (§1)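 Each strain is brought to 2×10^6 CFU in nutrient-sufficient Mueller-Hinton medium and dispensed into wells. Peptide solutions, stepwise diluted 2:1 in the same medium, are then added. The minimal concentration preventing growth gives the MIC.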

MDRAB 12035 [2] = test: microbe, parasite or virus in culture; format: cell-based, Acinetobacter baumannii
Outline: as §1

A. baumannii [3] = test: MIC of antimicrobial peptide during combined treatment with antibiotic; format: cell-based, Acinetobacter baumannii
Outline: (§2)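 Broth microdilution in MH medium; strains were diluted to 2×10^6 CFU per ml before plating. Peptide was serially diluted stepwise at 2:1 starting from its MIC, and MH-diluted antibiotic was then added to determine MIC. The reversed arrangement was also tested.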

MDRAB 12035 [4] = test: as above; format: cell-based, Acinetobacter baumannii
Outline: as §2

S. aureus = test: microbe, parasite or virus in culture; format: cell-based, Staphylococcus aureus
Outline: as §1

MDREC 1229 = format: cell-based, Escherichia coli
Outline: as §2

E. coli = format: cell-based, Escherichia coli; conditions: E. coli
Outline: as §2

A. baumannii [5] = test: MIC of antibiotic during combined treatment with antimicrobial peptide; format: cell-based, Acinetobacter baumannii
Outline: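 Using MH broth, we determined combination MICs by titrating the antibiotic into wells and then repeating under the reverse dilution scheme.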

[6] = erythromycin 4 μg/ml (Conc./MIC 1/8)
[7] = erythromycin 8 μg/ml (Conc./MIC 1/4)
[8] = erythromycin 16 μg/ml (Conc./MIC 1/2)
[9] = erythromycin 32 μg/ml (Conc./MIC 1)
[10] = vancomycin 512 μg/ml (Conc./MIC 1/2)
[11] = vancomycin 1024 μg/ml (Conc./MIC 1)
[12] = linezolid 64 μg/ml (Conc./MIC 1/8)
[13] = linezolid 512 μg/ml (Conc./MIC 1)
[14] = A. baumannii, combined with peptide at 1 μg/ml
[15] = A. baumannii, combined with peptide at 2 μg/ml

## CC[C@H](C)[C@H](NC(=O)[C@H](CCCCN)NC(=O)[C@H](Cc1c[nH]c2ccccc12)NC(=O)[C@@H](N)CCCNC(=N)N)C(=O)N[C@@H](Cc1ccccc1)C(=O)N[C@@H](CCCCN)C(=O)N[C@@H](CCCCN)C(=O)N[C@H](C(=O)N1CCC[C@H]1C(=O)N[C@@H](CCCCN)C(=O)N[C@@H](Cc1ccccc1)C(=O)N[C@@H](CC(C)C)C(=O)N[C@@H](Cc1c[nH]cn1)C(=O)N[C@@H](CCC(=O)O)C(=O)N[C@@H](C)C(=O)N[C@@H](CCCCN)C(=O)N[C@@H](CCCCN)C(=O)N[C@@H](Cc1c[nH]c2ccccc12)C(N)=O)[C@@H](C)CC [PapMA-14, RWK IFK KIP KFL HEA KKW-NH2] (H-RWKIFKKIPKFLHEAKKW-NH2; N-terminus assumed)
A. baumannii [1]
  Minimal inhibitory concentration MIC: 16 µg/mL (≈ 6.71 µM)
  Peptide MIC, peptide alone: 16 µg/mL
A. baumannii [1]; A. baumannii and S. typhimurium
  Antibacterial activity relative to PapMA-1: at least twice as high
MDRAB 12035 [2]
  Minimal inhibitory concentration MIC: 16 µg/mL (≈ 6.71 µM)
  Peptide MIC, peptide alone: 16 µg/mL
A. baumannii [3]; [6]
  Peptide MIC during treatment with antibiotic: 4 µg/mL
A. baumannii [3]; [7]
  Peptide MIC during treatment with antibiotic: 2 µg/mL
A. baumannii [3]; [8]
  Peptide MIC during treatment with antibiotic: 1 µg/mL
A. baumannii [3]; [9]
  Peptide MIC during treatment with antibiotic: 0 µg/mL
A. baumannii [3]; linezolid 32 μg/ml (Conc./MIC 1/8)
  Peptide MIC during treatment with antibiotic: 2 µg/mL
A. baumannii [3]; linezolid 64 μg/ml (Conc./MIC 1/4)
  Peptide MIC during treatment with antibiotic: 2 µg/mL
A. baumannii [3]; linezolid […] (Conc./MIC 1)
  Peptide MIC during treatment with antibiotic: 0 µg/mL
A. baumannii [3]; linezolid […] (Conc./MIC 1/2)
  Peptide MIC during treatment with antibiotic: 1 µg/mL
A. baumannii [3]; [10]
  Peptide MIC during treatment with antibiotic: 0.25 µg/mL
A. baumannii [3]; [11]
  Peptide MIC during treatment with antibiotic: 0 µg/mL
A. baumannii [3]; vancomycin […] (Conc./MIC 1/4)
  Peptide MIC during treatment with antibiotic: 0.5 µg/mL
A. baumannii [3]; vancomycin […] (Conc./MIC 1/8)
  Peptide MIC during treatment with antibiotic: 2 µg/mL
MDRAB 12035 [4]; [6]
  Peptide MIC during treatment with erythromycin: 4 µg/mL
MDRAB 12035 [4]; [7]
  Peptide MIC during treatment with erythromycin: 2 µg/mL
MDRAB 12035 [4]; [8]
  Peptide MIC during treatment with erythromycin: 1 µg/mL
MDRAB 12035 [4]; [9]
  Peptide MIC during treatment with erythromycin: 0 µg/mL
MDRAB 12035 [4]; [12]
  Peptide MIC during treatment with linezolid: 2 µg/mL
MDRAB 12035 [4]; [13]
  Peptide MIC during treatment with linezolid: 0 µg/mL
MDRAB 12035 [4]; linezolid […] (Conc./MIC 1/2)
  Peptide MIC during treatment with linezolid: 1 µg/mL
MDRAB 12035 [4]; linezolid […] (Conc./MIC 1/4)
  Peptide MIC during treatment with linezolid: 1 µg/mL
MDRAB 12035 [4]; [10]
  Peptide MIC during treatment with vancomycin: 1 µg/mL
MDRAB 12035 [4]; [11]
  Peptide MIC during treatment with vancomycin: 1 µg/mL
MDRAB 12035 [4]; vancomycin […] (Conc./MIC 1/4)
  Peptide MIC during treatment with vancomycin: 2 µg/mL
MDRAB 12035 [4]; vancomycin […] (Conc./MIC 1/8)
  Peptide MIC during treatment with vancomycin: 2 µg/mL
S. aureus
  Minimal inhibitory concentration MIC: >128 µg/mL
MDREC 1229; erythromycin 32 μg/ml (Conc./MIC 1/8)
  Peptide MIC during treatment with antibiotic: 2 µg/mL
MDREC 1229; erythromycin 64 μg/ml (Conc./MIC 1/4)
  Peptide MIC during treatment with antibiotic: 2 µg/mL
MDREC 1229; erythromycin […] (Conc./MIC 1)
  Peptide MIC during treatment with antibiotic: 0 µg/mL
MDREC 1229; erythromycin […] (Conc./MIC 1/2)
  Peptide MIC during treatment with antibiotic: 1 µg/mL
MDREC 1229; [12]
  Peptide MIC during treatment with antibiotic: 4 µg/mL
MDREC 1229; [13]
  Peptide MIC during treatment with antibiotic: 0 µg/mL
MDREC 1229; linezolid […] (Conc./MIC 1/2)
  Peptide MIC during treatment with antibiotic: 1 µg/mL
MDREC 1229; linezolid […] (Conc./MIC 1/4)
  Peptide MIC during treatment with antibiotic: 2 µg/mL
MDREC 1229; [10]
  Peptide MIC during treatment with antibiotic: 2 µg/mL
MDREC 1229; [11]
  Peptide MIC during treatment with antibiotic: 1 µg/mL
MDREC 1229; vancomycin […] (Conc./MIC 1/4)
  Peptide MIC during treatment with antibiotic: 4 µg/mL
MDREC 1229; vancomycin […] (Conc./MIC 1/8)
  Peptide MIC during treatment with antibiotic: 4 µg/mL
E. coli; with Erythromycin […] (Conc./MIC 1)
  Peptide MIC: 0 µg/mL
E. coli; with Linezolid […] (Conc./MIC 1)
  Peptide MIC: 0 µg/mL
E. coli; with Vancomycin 1024 μg/ml (Conc./MIC 1)
  Peptide MIC: 0 µg/mL
A. baumannii [5]; A. baumannii and MDRAB 12035
  Synergistic effect of antibacterial activity with existing antibiotics compared with PapMA-1: higher level than the PapMA-1 peptide
A. baumannii [5]; [14]
  Antibiotic MIC, Erythromycin: 16 µg/mL
  Antibiotic MIC, Linezolid: 128 µg/mL
  Antibiotic MIC, Vancomycin: >128 µg/mL
A. baumannii [5]; [15]
  Antibiotic MIC, Erythromycin: 8 µg/mL
  Antibiotic MIC, Linezolid: 32 µg/mL
